Data as given in patent US20050014811A1, “Substituted benzimidazole compounds and their use for the treatment of cancer” (Aventis Pharma S.A., priority 2001, published 2005).

Biological target: CDK4/CyclinD1 (Homo sapiens, UniProt P11802)
Assay: CDK4/CyclinD1 Flashplate assay, 96-well format, biotinylated-Rb peptide substrate
Assay type: biochemical
Settings: not given
Description: This is a CDK4/CyclinD1 kinase assay in a 96-well Streptavidin-coated Flashplate with a biotinylated-Rb peptide substrate.
Each point is tested in duplicate
Biotinylated-Rb: Biotin-[…]
• 1. Prepare substrate: 1 mg/ml solution made fresh in PBS. • 2. Add 100 μg per well to the Flashplate. • 3. Incubate for 2 hours at RT. • 4. From 10 mM inhibitor stocks in DMSO, make 1 mM, 300 μM, 100 μM, 30 μM and 10 μM series of dilution in DMSO. • 5. Wash the Flashplate 3 times with 300 μl PBS to remove unbound peptide substrate. • 6. Add the CDK4/CyclinD1 kinase: 70 ng per well, in a volume of 90 μl in kinase buffer (except for “no enzyme” control wells). • 7. Add 1 μl^1 per well of inhibitor to test 10 μM, 3 μM, 1 μM, 0.3 μM and 0.1 μM in final concentration per 100 μl in each well. • 8. Shake gently the Flashplate 1 minute. • 9. Incubate 30 minutes on wet ice. • 10. Initiate the reaction with 10 μl kinase buffer containing 1 μM final cold ATP and 1 μCi final ^33P-ATP per well. • 11. Shake gently the Flashplate 1 minute. • 12. Incubate 45 minutes at RT (no shaking). • 13. Wash the Flashplate 3 times with 300 μl PBS • 14. Count to detect the incorporation of ^33P-ATP by the kinase to the Rb phosphorylation site.

Sequence of CDK4/CyclinD1 (P11802 whole entry, species assumed): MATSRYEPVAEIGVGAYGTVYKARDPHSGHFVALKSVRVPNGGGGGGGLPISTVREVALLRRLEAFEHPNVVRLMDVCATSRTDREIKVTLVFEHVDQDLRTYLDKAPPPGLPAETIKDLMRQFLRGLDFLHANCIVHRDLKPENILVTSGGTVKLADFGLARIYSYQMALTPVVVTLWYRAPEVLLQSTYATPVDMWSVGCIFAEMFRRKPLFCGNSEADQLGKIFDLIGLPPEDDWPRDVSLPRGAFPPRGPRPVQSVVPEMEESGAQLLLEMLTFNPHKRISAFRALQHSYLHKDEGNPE
Sequence of CDK4/CyclinD1 (P24385 whole entry partner, species assumed): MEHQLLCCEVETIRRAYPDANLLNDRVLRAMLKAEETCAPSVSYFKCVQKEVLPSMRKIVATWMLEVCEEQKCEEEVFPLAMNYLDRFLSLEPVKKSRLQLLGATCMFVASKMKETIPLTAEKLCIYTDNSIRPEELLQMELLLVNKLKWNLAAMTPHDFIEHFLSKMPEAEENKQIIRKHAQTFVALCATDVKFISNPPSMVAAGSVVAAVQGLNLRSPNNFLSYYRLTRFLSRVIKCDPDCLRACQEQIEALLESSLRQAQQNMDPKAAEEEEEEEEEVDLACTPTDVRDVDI

Row | IC50 [nM] | inhibition at 10 µM [%] | Compound
1 | 1180 | – | O=S(=O)(Oc1ccc2[nH]c(Nc3ccccc3)nc2c1)c1ccc(NC2CCCC2)cc1 [Example 70-a, 4-Cyclopentylamino-benzenesulfonic acid 2-phenylamino-1H-benzoimidazol-5-yl ester]
2 | 2060 | – | COC(=O)Nc1nc2ccc(OS(=O)(=O)c3ccc(OC(F)(F)F)cc3)cc2[nH]1 [Example 61]
3 | 1200 | – | COC(=O)Nc1nc2cc(OS(=O)(=O)c3cccc(C(F)(F)F)c3)ccc2[nH]1 [Example 62-m, 3-Trifluoromethyl-benzenesulfonic acid 2-methoxycarbonylamino-1H-benzoimidazol-5-yl ester]
4 | 800 | – | CC(=O)NCCNc1ccc(S(=O)(=O)Oc2ccc3[nH]c(NC(=O)C4CC4)nc3c2)cc1 [Example 60-ac, 4-(2-Acetylamino-ethylamino)-benzenesulfonic acid 2-(cyclopropanecarbonyl-amino)-1H-benzoimidazol-5-yl ester]
5 | 600 | – | CCOC(=O)CCCNC(=O)Nc1nc2cc(OS(=O)(=O)c3ccc(NC4CCCC4)cc3)ccc2[nH]1 [Example 58-n, 4-{3-[5-(4-Cyclopentylamino-benzenesulfonyloxy)-1H-benzoimidazol-2-yl]-ureido}-butyric acid ethyl ester]
6 | 600 | – | O=C(NCCCn1ccnc1)Nc1nc2cc(OS(=O)(=O)c3ccc(NC4CCCC4)cc3)ccc2[nH]1 [Example 58-p, 4-Cyclopentylamino-benzenesulfonic acid 2-[3-(3-imidazol-1-yl-propyl)-ureido]-1H-benzoimidazol-5-yl ester]
7 | – | 91 | COC(=O)Nc1nc2ccc(OS(=O)(=O)c3ccc(NCC4CC4)cc3)cc2[nH]1 [Example 67, 4-(cyclopropylmethyl-amino)-benzene sulfonic acid 2-methoxycarbonylamino-1H-benzoimidazol-5-yl ester]
8 | 1500 | – | COC(=O)Nc1nc2ccc(OS(=O)(=O)c3ccc(OCc4ccccc4)cc3)cc2[nH]1 [Example 63, 4-benzyloxy-benzenesulfonic acid 2-methoxycarbonylamino-1H-benzoimidazol-5-yl ester]
9 | 2200 | – | O=C(Nc1nc2cc(OS(=O)(=O)c3ccc(NCCCN4CCCC4=O)cc3)ccc2[nH]1)C1CC1 [Example 60-ae, 4-[3-(2-Oxo-pyrrolidin-1-yl)-propylamino]-benzenesulfonic acid 2-(cyclopropanecarbonyl-amino)-1H-benzoimidazol-5-yl ester]
10 | 3900 | – | O=C(Nc1nc2cc(OS(=O)(=O)c3ccc(NCCN4CCNCC4)cc3)ccc2[nH]1)C1CC1 [Example 60-aa, 4-(2-Piperazin-1-yl-ethylamino)-benzene-sulfonic acid 2-(cyclopropanecarbonyl-amino)-1H-benzoimidazol-5-yl ester]
11 | 1000 | – | COC(=O)Nc1nc2cc(OS(=O)(=O)c3ccccc3C(F)(F)F)ccc2[nH]1 [Example 62-o, 2-Trifluoromethyl-benzenesulfonic acid 2-methoxycarbonylamino-1H-benzoimidazol-5-yl ester]
12 | – | 100 | CCNC(=O)Nc1nc2cc(OS(=O)(=O)c3ccc(NC(C)CO)cc3)ccc2[nH]1 (stereo not drawn) [Example 78-l, 4-(2-Hydroxy-1-methyl-ethylamino)-benzenesulfonic acid 2-[3-(2-ethyl)-ureido]-1H-benzoimidazol-5-yl ester]
13 | 500 | – | O=C(Nc1nc2cc(OS(=O)(=O)c3ccc(NCc4cccnc4)cc3)ccc2[nH]1)C1CC1 [Example 60-m, 4-[(Pyridin-3-yl-methyl)-amino]-benzenesulfonic acid 2-(cyclopropanecarbonyl-amino)-1H-benzoimidazol-5-yl ester]
14 | 1300 | – | NCCNCCNc1ccc(S(=O)(=O)Oc2ccc3[nH]c(NC(=O)C4CC4)nc3c2)cc1 [Example 60-ad, 4-[2-(2-Amino-ethylamino)-ethylamino]-benzenesulfonic acid 2-(cyclopropanecarbonyl-amino)-1H-benzoimidazol-5-yl ester]
15 | – | 54 | COCCNC(=O)Nc1nc2cc(OS(=O)(=O)c3ccc(OCc4ccccc4)cc3)ccc2[nH]1 [Example 78-o, 4-Benzyloxy-benzenesulfonic acid 2-[3-(2-methoxy-ethyl)-ureido]-1H-benzoimidazol-5-yl ester]
16 | – | 50 | COC(=O)Nc1nc2ccc(OS(=O)(=O)c3ccc(OCCN4CCCCC4)cc3)cc2[nH]1 [Example 64-d, 4-(2-piperidin-1-yl-ethoxy)-benzenesulfonic acid 2-methoxycarbonylamino-3H-benzoimidazol-5-yl ester]
17 | 1600 | – | COC(=O)Nc1nc2cc(OS(=O)(=O)c3cc(F)ccc3C)ccc2[nH]1 [Example 62-q, 5-Fluoro-2-methyl-benzenesulfonic acid 2-methoxycarbonylamino-1H-benzoimidazol-5-yl ester]
18 | – | 100 | O=C(NCCF)Nc1nc2ccc(OS(=O)(=O)c3ccc(NCCF)cc3)cc2[nH]1 [Example 80-c, 4-(2-Fluoro-ethylamino)-benzenesulfonic acid 2-[3-(2-fluoro-ethyl)-ureido]-3H-benzoimidazol-5-yl ester]
19 | 800 | – | 4-Benzylamino-benzenesulfonic acid 2-(cyclopropanecarbonyl-amino)-1H-benzoimidazol-5-yl ester [Example 60-a]
20 | – | 50 | COC(=O)Nc1nc2ccc(OS(=O)(=O)c3ccc(OCCN4CCOCC4)cc3)cc2[nH]1 [Example 64-b, 4-(2-Morpholin-4-yl-ethoxy)-benzenesulfonic acid 2-methoxycarbonylamino-3H-benzoimidazol-5-yl ester]
21 | 100 | – | COCCNc1ccc(S(=O)(=O)Oc2ccc3[nH]c(NC(=O)NCc4ccccn4)nc3c2)cc1 [Example 78-f]
22 | 2000 | – | COC(=O)Nc1nc2cc(OS(=O)(=O)c3ccc(NCC(C)O)cc3)ccc2[nH]1 (stereo not drawn) [Example 9, Methyl-5-(4-[2-methyl,2-hydroxyethyl]aminophenyl-sulfonyloxy) benzimidazole-2-carbamate]
23 | 900 | – | O=C(Nc1nc2cc(OS(=O)(=O)c3ccc(NCCCO)cc3)ccc2[nH]1)C1CC1 [Example 60-d, 4-(3-Hydroxy-propylamino)-benzenesulfonic acid 2-(cyclopropanecarbonyl-amino)-1H-benzoimidazo1-5-yl ester]
24 | – | 46 | COCCNC(=O)Nc1nc2cc(OS(=O)(=O)c3ccc(NCC4CCNCC4)cc3)ccc2[nH]1 [Example 78-v, 4-[(Piperidin-4-ylmethyl)-amino]-benzenesulfonic acid 2-[3-(2-methoxy-ethyl)-ureido]-1H-benzoimidazol-5-yl ester]
25 | – | 50 | COC(=O)Nc1nc2cc(OS(=O)(=O)c3c(C)noc3C)ccc2[nH]1 [Example 62-a, 3,5-Dimethyl-isoxazole-4-sulfonic acid 2-methoxycarbonylamino-1H-benzoimidazol-5-yl ester]
26 | 2500 | – | COC(=O)Nc1nc2cc(OS(=O)(=O)c3cccc(F)c3)ccc2[nH]1 [Example 62-r, 3-Fluoro-benzenesulfonic acid 2-methoxycarbonylamino-1H-benzoimidazol-5-yl ester]
27 | 9000 | – | CCOC(=O)C1CCN(C(=O)Nc2nc3cc(OS(=O)(=O)c4ccc(NC5CCCC5)cc4)ccc3[nH]2)CC1 [Example 58-t, 1-[5-(4-Cyclopentylamino-benzenesulfonyloxy)-1H-benzoimidazol-2-yl-carbamoyl]-piperidine-4-carboxylic acid ethyl ester]
28 | 1100 | – | COC(=O)Nc1nc2cc(OS(=O)(=O)c3ccc(NC(C)CO)cc3)ccc2[nH]1 (stereo not drawn) [Example 8, Methyl-5-(4-[1-methyl,2-hydroxyethyl]aminophenyl-sulfonyloxy) benzimidazole-2-carbamate]
29 | – | 55 | O=C(NCCN1CCOCC1)Nc1nc2cc(OS(=O)(=O)c3ccc(NCC4CCNCC4)cc3)ccc2[nH]1 [Example 78-t, 4-[(Piperidin-4-ylmethyl)-amino)-benzenesulfonic acid 2-[3-(2-morpholin-4-yl-ethyl)-ureido]-1H-benzoimidazol-5-yl ester]
30 | – | 90 | O=C(NCCN1CCOCC1)Nc1nc2cc(OS(=O)(=O)c3ccc(NCc4ccccc4)cc3)ccc2[nH]1 [Example 78-w, 4-Benzylamino-benzenesulfonic acid 2-[3-(2-morpholin-4-yl-ethyl)-ureido]-1H-benzoimidazol-5-yl ester]

Row | Compound | IC50 [nM] | inhibition at 10 µM [%]
31 | O=C(Nc1nc2cc(OS(=O)(=O)c3ccc(NC4CN5CCC4CC5)cc3)ccc2[nH]1)C1CC1 (stereo not drawn) [Example 60-v, 4-(1-Aza-bicyclo[2.2.2]-oct-3-ylamino)-benzenesulfonic acid 2-(cyclopropane-carbonyl-amino)-1H-benzoimidazol-5-yl ester] | 4200 | –
32 | COC(=O)Nc1nc2cc(OS(=O)(=O)c3ccc(OCC(=O)N4CCN(C)CC4)cc3)ccc2[nH]1 [Example 66-a, 4-[2-(4-Methyl-piperazin-1-yl)-2-oxo-ethoxy]-benzenesulfonic acid 2-methoxycarbonylamino-1H-benzoimidazol-5-yl ester] | – | 19

Same assay, conditions: at 10 μM

Row | inhibition of CDK4/cyclinD1 at 10 μM [% inhibition at 10 μM] | Compound
33 | 54 | O=C(NCc1ccccn1)Nc1nc2cc(OS(=O)(=O)c3ccc(OCc4ccccc4)cc3)ccc2[nH]1 [Example 78-n]
